# PMC10238386, “Serine ADP-ribosylation in Drosophila provides insights into the evolution of reversible ADP-ribosylation signalling” (Nature Communications, 2023)
# Legend:
# hPARP1 [1] = molecular target: T1, hPARP1 (Homo sapiens, UniProt P09874, E988Q); experiment: […] auto-mono-ADP-ribosylation, SDS-PAGE autoradiography; type: biochemical; settings: labelled compound (32P-NAD+); 50 µM NAD+, activated DNA, 2 mM MgCl2, pH 8, room temperature; no HPF1
# T1 construct: gene PARP1
# hPARP1 [2] = molecular target: T2, hPARP1 (Homo sapiens, UniProt P09874); experiment: […] auto-ADP-ribosylation (poly-Glu), SDS-PAGE autoradiography; type: biochemical; settings: labelled compound (32P-NAD+); 50 µM NAD+, activated DNA, 2 mM MgCl2, pH 8, room temperature; no HPF1
# T2 construct: gene PARP1
# T2 sequence (P09874 2-1014): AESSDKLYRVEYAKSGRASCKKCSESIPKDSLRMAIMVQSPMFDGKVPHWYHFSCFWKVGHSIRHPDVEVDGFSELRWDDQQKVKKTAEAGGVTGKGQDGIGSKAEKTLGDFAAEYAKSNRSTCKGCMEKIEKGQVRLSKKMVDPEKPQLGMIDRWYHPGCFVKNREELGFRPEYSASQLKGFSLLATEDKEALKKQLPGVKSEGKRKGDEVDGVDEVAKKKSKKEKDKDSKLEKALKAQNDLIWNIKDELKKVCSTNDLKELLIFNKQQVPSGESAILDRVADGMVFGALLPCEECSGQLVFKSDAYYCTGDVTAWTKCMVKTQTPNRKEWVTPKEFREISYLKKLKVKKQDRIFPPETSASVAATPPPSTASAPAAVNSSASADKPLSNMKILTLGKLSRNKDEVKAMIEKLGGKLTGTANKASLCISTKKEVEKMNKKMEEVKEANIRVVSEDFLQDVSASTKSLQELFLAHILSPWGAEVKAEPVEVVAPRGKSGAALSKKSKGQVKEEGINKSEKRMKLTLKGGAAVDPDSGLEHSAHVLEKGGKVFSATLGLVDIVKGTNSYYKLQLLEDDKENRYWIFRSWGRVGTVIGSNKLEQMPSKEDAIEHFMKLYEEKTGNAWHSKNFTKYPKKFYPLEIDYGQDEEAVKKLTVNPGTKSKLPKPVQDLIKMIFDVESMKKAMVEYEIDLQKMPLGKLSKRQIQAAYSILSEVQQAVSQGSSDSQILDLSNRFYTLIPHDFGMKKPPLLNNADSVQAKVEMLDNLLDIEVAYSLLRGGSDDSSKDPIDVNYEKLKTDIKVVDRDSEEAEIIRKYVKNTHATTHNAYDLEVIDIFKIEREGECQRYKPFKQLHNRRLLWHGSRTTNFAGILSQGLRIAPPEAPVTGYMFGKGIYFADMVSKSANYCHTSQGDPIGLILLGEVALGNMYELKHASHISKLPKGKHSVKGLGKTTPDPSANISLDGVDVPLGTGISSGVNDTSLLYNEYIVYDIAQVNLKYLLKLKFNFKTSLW
# T1 sequence (P09874 2-1014 E988Q): as the sequence (P09874 2-1014) above, with E987Q counted along it
smiles,measurement,setting,value
NC(=O)c1ccc[n+]([C@@H]2O[C@H](COP(=O)(O)OP(=O)(O)OC[C@H]3O[C@@H](n4cnc5c(N)ncnc54)[C@H](O)[C@@H]3O)[C@@H](O)[C@H]2O)c1 [NAD^+],"32P auto-mono-ADP-ribosylation, SDS-PAGE autoradiography",hPARP1 [1],we generated the mono-ADPr variants using the hPARP1 E988Q mutant
same,"32P auto-ADP-ribosylation (poly-Glu), SDS-PAGE autoradiography",hPARP1 [2],recombinant proteins or peptides were ADP-ribosylated by hPARP1 to produce Glu-ADPr
